Assay results published in ChEMBL document CHEMBL1139531, “Synthesis and biological evaluation of dihydromotuporamine derivatives in cells containing active polyamine transporters” (J Med Chem, 2005).

Assays:
CHO = test: Inhibition of chinese hamster ovary cell proliferation, high polyamine transporter activity; type: functional, cell-based; conditions: Cricetulus griseus
L1210 [1] = test: Affinity for cellular polyamine transporter system as inhibition [14C]spermidine uptake in L1210 cells; type: functional, cell-based, Mus musculus
CHO-MG [2] = test: Relative inhibition of CHO-MG and chinese hamster ovary cell proliferation; type: functional
CHO-MG [3] = test: Inhibition of MGBG-resistant CHO-MG cell proliferation, no polyamine transporter activity; type: functional, cell-based; conditions: Cricetulus griseus
L1210 [4] = test: Inhibition of murine L1210 leukemia cell proliferation, high polyamine transporter activity; type: functional, cell-based; conditions: Mus musculus

| IC50 (L1210 [4]) | Compound | IC50 (CHO) | Ki (L1210 [1]) | Ratio (CHO-MG [2]) | IC50 (CHO-MG [3]) |
| --- | --- | --- | --- | --- | --- |
| 22.2 µM | CCN(CCCCNCCCCN)Cc1c2ccccc2cc2ccccc12.Cl.Cl.Cl | 22.2 µM | 24.4 µM | 1 | 21.9 µM |
| 18.5 µM | NCCCCNCCCCN1CCCCCCCCCCCCCC1 | 30 µM | 6.2 µM | 1 | 28.2 µM |
| – | Cl.Cl.Cl.NCCCCNCCCCNCc1c2ccccc2cc2ccccc12 | 0.45 µM | – | 148 | – |
| 1.8 µM | Cl.Cl.Cl.NCCCNCCCNCc1c2ccccc2cc2ccccc12 | 1.9 µM | 33.4 µM | 1.8 | 3.4 µM |
| 3 µM | NCCCNCCCN1CCCCCCCCCCCCCC1 | 10.5 µM | 9.9 µM | 1 | 10 µM |
